Data as given in PubChem BioAssay AID256 (DTP/NCI, 2004).
Toxic doses and inconclusive results are not listed. Rule for the calls: active = survival T/C of 150% or more; inactive = T/C below 125% in these data.

System: CD2F1 mice, L1210 leukemia ip, survival T/C
Assay: NCI In Vivo Anticancer Drug Screen. Data for tumor model L1210 Leukemia (intraperitoneal) in CD2F1 (CDF1) mice
Details: endpoint: mean survival time, higher = longer survival
Method in brief: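 Antitumor effect is scored in animals hosting a serially transplanted tumor. Values compare compound-dosed animals against vehicle-only controls as a simple quotient.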

[1] = dose: 100.0 mg/kg/injection, schedule: Q04DX003 (ip), vehicle: Klucel (hydroxypropylcellulose) (HPC)
[2] = dose: 200.0 mg/kg/injection, schedule: Q04DX003 (ip), vehicle: Klucel (hydroxypropylcellulose) (HPC)
[3] = dose: 100.0 mg/kg/injection, schedule: Q01DX009 (ip), vehicle: saline with Tween-80
[4] = dose: 100.0 mg/kg/injection, schedule: Q04DX003 (ip), vehicle: saline with Tween-80
[5] = dose: 200.0 mg/kg/injection, schedule: Q01DX009 (ip), vehicle: saline with Tween-80
[6] = dose: 200.0 mg/kg/injection, schedule: Q04DX003 (ip), vehicle: saline with Tween-80
[7] = dose: 400.0 mg/kg/injection, schedule: Q01DX009 (ip), vehicle: saline with Tween-80
[8] = dose: 400.0 mg/kg/injection, schedule: Q04DX003 (ip), vehicle: saline with Tween-80
[9] = dose: 100.0 mg/kg/injection, schedule: Q01DX001 (ip), vehicle: saline with Tween-80
[10] = dose: 200.0 mg/kg/injection, schedule: Q01DX001 (ip), vehicle: saline with Tween-80
[11] = dose: 400.0 mg/kg/injection, schedule: Q01DX001 (ip), vehicle: saline with Tween-80

Measured: T/C

CCOC(=O)C(CC(=O)O)=C1c2ccccc2-c2ccccc21
inactive: dose: 25.0 mg/kg/injection, schedule: Q04DX003 (ip), vehicle: Klucel (hydroxypropylcellulose) (HPC) 96 % of control | dose: 50.0 mg/kg/injection, schedule: Q04DX003 (ip), vehicle: Klucel (hydroxypropylcellulose) (HPC) 93 % of control | [1] 87 % of control | [2] 93 % of control

O=NN(CCOS(=O)(=O)c1ccc(Br)cc1)C(=O)NC1CCCCC1
inactive: dose: 100.0 mg/kg/injection, schedule: Q01DX001 (ip), vehicle: other 102 % of control | dose: 200.0 mg/kg/injection, schedule: Q01DX001 (ip), vehicle: other 101 % of control

Cc1cc(C)c(CN)cc1C
inactive: dose: 5.0 mg/kg/injection, schedule: Q01DX009 (ip), vehicle: saline with Tween-80 96 % of control | dose: 10.0 mg/kg/injection, schedule: Q01DX009 (ip), vehicle: saline with Tween-80 105 % of control | dose: 20.0 mg/kg/injection, schedule: Q01DX009 (ip), vehicle: saline with Tween-80 92 % of control

CCn1cnc(-c2ccccc2)c1-c1ccccc1
inactive: dose: 25.0 mg/kg/injection, schedule: Q01DX009 (ip), vehicle: saline with Tween-80 110 % of control | dose: 50.0 mg/kg/injection, schedule: Q01DX009 (ip), vehicle: saline with Tween-80 107 % of control | [3] 98 % of control | [4] 101 % of control

CC(C)=CBr
inactive: dose: 100.0 mg/kg/injection, schedule: Q04DX003 (ip), vehicle: acetone 103 % of control | dose: 200.0 mg/kg/injection, schedule: Q04DX003 (ip), vehicle: acetone 94 % of control

CCOC(=O)CCOc1ccc(Cl)cc1
inactive: [3] 95 % of control | [4] 89 % of control | [5] 97 % of control | [6] 93 % of control | [7] 104 % of control | [8] 91 % of control

Cc1ccc2c(C)cc(=O)[nH]c2c1
inactive: [4] 95 % of control | [6] 95 % of control | [8] 101 % of control

CN1CCN(Cc2cn(C3CC(O)C(CO)O3)c(=O)[nH]c2=O)c2ccccc21 (configuration not stated)
inactive: dose: 12.5 mg/kg/injection, schedule: Q01DX005 (ip), vehicle: distilled water + Tween-80 93 % of control | dose: 25.0 mg/kg/injection, schedule: Q01DX005 (ip), vehicle: distilled water + Tween-80 93 % of control | dose: 50.0 mg/kg/injection, schedule: Q01DX005 (ip), vehicle: distilled water + Tween-80 93 % of control | dose: 100.0 mg/kg/injection, schedule: Q01DX005 (ip), vehicle: distilled water + Tween-80 103 % of control | dose: 200.0 mg/kg/injection, schedule: Q01DX005 (ip), vehicle: distilled water + Tween-80 93 % of control

CN(C)c1nc(N)nc(-c2cc[n+]([O-])cc2)n1
inactive: dose: 100.0 mg/kg/injection, schedule: Q04DX002 (ip), vehicle: saline 103 % of control | dose: 200.0 mg/kg/injection, schedule: Q04DX002 (ip), vehicle: saline 88 % of control

CC(=O)[C@]1(O)Cc2c(O)c3c(c(O)c2[C@@H](OC2CC(N)C(O)C(C)O2)C1)C(=O)c1c(O)cccc1C3=O (some centres not stated)
inactive: dose: 0.05 mg/kg/injection, schedule: Q01DX009 (ip), vehicle: saline 118 % of control | dose: 0.08 mg/kg/injection, schedule: Q01DX009 (ip), vehicle: saline 120 % of control | dose: 0.08 mg/kg/injection, schedule: Q04DX003 (ip), vehicle: saline 107 % of control | dose: 0.14 mg/kg/injection, schedule: Q04DX003 (ip), vehicle: saline 109 % of control | dose: 0.23 mg/kg/injection, schedule: Q04DX003 (ip), vehicle: saline 123 % of control | dose: 0.39 mg/kg/injection, schedule: Q01DX009 (ip), vehicle: saline 113 % of control | dose: 0.65 mg/kg/injection, schedule: Q01DX009 (ip), vehicle: saline 88 % of control

CC(=O)Nc1ccc2ccccc2c1
inactive: [4] 103 % of control | [6] 93 % of control | [8] 104 % of control

C(=N\Nc1nc2ccccc2s1)/c1ccnc2ccccc12
inactive: [1] 94 % of control | [2] 92 % of control | dose: 400.0 mg/kg/injection, schedule: Q04DX003 (ip), vehicle: Klucel (hydroxypropylcellulose) (HPC) 94 % of control

CCOC(=O)c1ccc(Oc2ncc([N+](=O)[O-])s2)cc1
inactive: dose: 4.95 mg/kg/injection, schedule: Q01DX009 (ip), vehicle: saline with Tween-80 100 % of control | dose: 7.42 mg/kg/injection, schedule: Q01DX009 (ip), vehicle: saline with Tween-80 95 % of control

O=CNc1ccccc1OCc1ccccc1
inactive: dose: 100.0 mg/kg/injection, schedule: Q01DX001 (ip), vehicle: saline 100 % of control | dose: 200.0 mg/kg/injection, schedule: Q01DX001 (ip), vehicle: saline 97 % of control | dose: 400.0 mg/kg/injection, schedule: Q01DX001 (ip), vehicle: saline 103 % of control

Cc1cc(N(CCCl)CCCl)ccc1C1N(Cc2ccc(N(C)C)cc2)CCCN1Cc1ccc(N(C)C)cc1
inactive: [3] 101 % of control | [4] 98 % of control | [5] 101 % of control | [6] 101 % of control | [7] 108 % of control | [8] 108 % of control

Cc1ccc(S(=O)(=O)OC2(c3cc(C(F)(F)F)cc(C(F)(F)F)c3)C3CCC2CC3)cc1 (configuration not stated)
inactive: dose: 37.5 mg/kg/injection, schedule: Q04DX002 (ip), vehicle: saline with Tween-80 102 % of control | dose: 75.0 mg/kg/injection, schedule: Q04DX002 (ip), vehicle: saline with Tween-80 94 % of control | dose: 150.0 mg/kg/injection, schedule: Q04DX002 (ip), vehicle: saline with Tween-80 98 % of control | dose: 300.0 mg/kg/injection, schedule: Q04DX002 (ip), vehicle: saline with Tween-80 102 % of control

CCOC(=O)CNC(=O)NC
inactive: dose: 100.0 mg/kg/injection, schedule: Q01DX009 (ip), vehicle: saline 100 % of control | dose: 200.0 mg/kg/injection, schedule: Q01DX009 (ip), vehicle: saline 98 % of control | dose: 400.0 mg/kg/injection, schedule: Q01DX009 (ip), vehicle: saline 100 % of control

CCC1(C)CCC2(C)C(CCC3C2CCCC3(C)CO)C1 (configuration not stated)
inactive: [9] 94 % of control | [10] 88 % of control | [11] 96 % of control

OCC(O)C1OC(SCc2ccccc2)C(O)C(O)C1O (configuration not stated)
inactive: [4] 91 % of control | [6] 100 % of control | [8] 107 % of control

Cc1n[nH]c2ccc([N+](=O)[O-])cc2c1=O
inactive: [3] 89 % of control

Clc1cc(Cl)cc(-c2cc(Cl)cc(Cl)c2)c1
inactive: dose: 100.0 mg/kg/injection, schedule: Q01DX001 (ip), vehicle: carboxymethylcellulose (CMC) 101 % of control | dose: 200.0 mg/kg/injection, schedule: Q01DX001 (ip), vehicle: carboxymethylcellulose (CMC) 92 % of control | dose: 400.0 mg/kg/injection, schedule: Q01DX001 (ip), vehicle: carboxymethylcellulose (CMC) 95 % of control

O=c1ccn(C2OC(CO)C(O)C2O)c(C2SCCCS2)n1 (configuration not stated)
inactive: dose: 9.38 mg/kg/injection, schedule: Q01DX005 (ip), vehicle: water 90 % of control | dose: 18.75 mg/kg/injection, schedule: Q01DX005 (ip), vehicle: water 93 % of control | dose: 37.5 mg/kg/injection, schedule: Q01DX005 (ip), vehicle: water 93 % of control | dose: 75.0 mg/kg/injection, schedule: Q01DX005 (ip), vehicle: water 96 % of control | dose: 150.0 mg/kg/injection, schedule: Q01DX005 (ip), vehicle: water 96 % of control

CN1NC(c2ccc(Cl)cc2)C2CN(C3CCCCC3)C(=O)C21O (configuration not stated)
inactive: [9] 100 % of control | [3] 96 % of control | [10] 96 % of control | [5] 90 % of control | [11] 94 % of control | [7] 88 % of control

O=C1C[C@H]2[C@H](CO)[C@@H](OC(=O)c3ccc(-c4ccccc4)cc3)C[C@H]2O1
inactive: dose: 100.0 mg/kg/injection, schedule: Q01DX001 (ip), vehicle: alcohol 94 % of control | dose: 200.0 mg/kg/injection, schedule: Q01DX001 (ip), vehicle: alcohol 88 % of control | dose: 400.0 mg/kg/injection, schedule: Q01DX001 (ip), vehicle: alcohol 92 % of control

COc1cc(C)ccc1C1=CCCCCC1
inactive: dose: 100.0 mg/kg/injection, schedule: Q04DX003 (ip), vehicle: saline 93 % of control | dose: 200.0 mg/kg/injection, schedule: Q04DX003 (ip), vehicle: saline 93 % of control | dose: 400.0 mg/kg/injection, schedule: Q04DX003 (ip), vehicle: saline 103 % of control

C(=C\c1nccc2c1[nH]c1ccccc12)/c1ccccc1
inactive: [4] 105 % of control | [6] 100 % of control | [8] 105 % of control
